Measured values taken from publication PMC8456715 (International journal of biological macromolecules, 2020).

Key:
AtMAT1 = target: T1, AtMAT1 (Arabidopsis thaliana, UniProt P23686); test: isothermal titration calorimetry; format: binding
T1 sequence (P23686 1-393): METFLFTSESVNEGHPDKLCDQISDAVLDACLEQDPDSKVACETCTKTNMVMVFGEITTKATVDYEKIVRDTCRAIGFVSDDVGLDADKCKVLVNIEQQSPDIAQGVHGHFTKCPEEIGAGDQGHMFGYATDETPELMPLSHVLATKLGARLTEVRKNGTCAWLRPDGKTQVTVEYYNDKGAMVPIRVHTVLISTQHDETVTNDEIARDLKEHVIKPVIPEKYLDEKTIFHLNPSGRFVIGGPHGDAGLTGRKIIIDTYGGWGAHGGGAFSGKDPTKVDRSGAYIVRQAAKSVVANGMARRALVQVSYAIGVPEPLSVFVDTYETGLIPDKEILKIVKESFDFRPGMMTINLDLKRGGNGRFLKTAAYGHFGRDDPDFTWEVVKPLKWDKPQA

AtMAT2 = target: T2, AtMAT2 (Arabidopsis thaliana, UniProt P17562); test: X-ray crystal structure; format: binding
T2 sequence (P17562 1-392): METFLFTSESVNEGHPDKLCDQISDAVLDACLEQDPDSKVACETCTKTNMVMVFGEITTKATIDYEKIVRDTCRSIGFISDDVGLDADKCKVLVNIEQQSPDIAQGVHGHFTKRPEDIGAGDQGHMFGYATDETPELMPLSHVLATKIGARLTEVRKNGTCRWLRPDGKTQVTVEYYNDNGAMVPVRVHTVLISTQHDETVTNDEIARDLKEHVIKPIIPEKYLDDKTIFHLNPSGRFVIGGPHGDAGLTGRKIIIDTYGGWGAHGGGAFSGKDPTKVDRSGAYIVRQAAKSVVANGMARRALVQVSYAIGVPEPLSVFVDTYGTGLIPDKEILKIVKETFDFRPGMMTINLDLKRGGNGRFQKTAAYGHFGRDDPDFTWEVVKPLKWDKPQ

SMILES	Kd (AtMAT1) [nM]	X-ray crystal structure (2.00 Å, soaking) (AtMAT2)
NCCCCNCCCN [spermidine]	654	
Nc1ncnc2c1ncn2[C@@H]1O[C@H](COP(=O)(O)CP(=O)(O)OP(=O)(O)O)[C@@H](O)[C@H]1O [AMPCPP]		inside the catalytic site both, precatalytic Met and the ATP analogue, AMPCPP, revealed the exact pre-reaction state of the enzyme
